Measurements reported in US20250313554A1, “PTPN2 INHIBITORS” (Ness Therapeutics, Inc., priority 2022, published 2025).
Like-named read-outs stand apart in the source and are kept apart here.

Columns and labels:
[1] = system: B16F10 mouse melanoma cells; assay: Tumor cells B16F10 cellular growth IFNγ-induced inhibition assay (CellTiter-Glo); assay type: cell-based; details: for IC50: B16-F10, 72 h
Experimental: B16F10 mouse melanoma cells (ATCC Cat #CRL-6475) were seeded at a density of 500 cells per well in a 384-well clear bottom plate (Corning Cat #3712, Corning, N.Y.) in 40 μL total volume of DMEM+10% FBS (PanEco Cat #C420, Russia and Sigma Cat #F4135, St. Louis, MO). Cells were allowed to adhere overnight at 37° C., 5% CO2. On the following day, 250× solutions of compounds in DMSO (Sigma Cat #D2650) were prepared into Cmpnds plate (Diamond Well Plate, Axigen, Cat #P-384-120SQ-C-S) (final concentration of 1×) and DMSO only controls were included. Dilution Plate (Diamond Well Plate (Axigen, Cat #P-384-120SQ-C-S) was prepared by adding 49 μL of culture medium per well: half of the plate with culture medium only, half with culture medium+IFNγ (5 ng/ml). A 1 μL aliquot of 250× compounds (Cmpnds plate) was added to 49 μL of culture medium (Dilution plate), then a 10 μL aliquot of the mixture was transferred to Reaction plate with 40 μL of cells followed by centrifugation at 240 g for 1 min. After 3 days of incubation, 10 μL of CellTiter-Glo (Promega) was added to the cells, plates were centrifuged at 240 g for 1 min, and luminescence signal was measured. For each compound, the percent growth inhibition at every compound dose level was calculated relative to the “DMSO/with IFNγ” control and used to determine the IC50.

GST-tagged PTPN2 protein = GST-tagged PTPN2 protein (Homo sapiens (Human), UniProt P17706); assay: Primary assay of PTPN2 enzymatic activity inhibition (DiFMUP fluorescence); assay type: biochemical; details: PTPN2 0.004 ng/μL, DiFUMP substrate 2 μM, 60 min at rt
Experimental: Compound activity was determined using GST-tagged PTPN2 protein (Cat #31592, ActiveMotif) (SEQ ID NO: 1) in an in vitro enzymatic reaction. The enzymatic reaction was carried out in assay buffer (50 mM HEPES Na salt pH 7.2-7.4, 2 mM EDTA, 100 mM NaCl, 52 ng/μL BSA, and 6 mM DTT). The compounds were dispensed on a 384 well Diamond Well Plate (Axigen, Cat #P-384-120SQ-C-S) using the Biomek FX liquid handling system at 100× solutions of compounds in DMSO. 2×PTPN2 (final concentration 0.004 ng/μL) was prepared in 1× Assay buffer and 25 μL of mixture per well was added into Reaction plate (Optiplate, black, Perkin Elmer, Cat #6007270). Add 25 μL of 1× buffer to Ctrl- (Substrate w/o PTPN2) wells followed by centrifugation at 100 g for 1 min. Next step the Compounds were added to Reaction plate using Biomek station via following steps: 3 μl of 100× compounds (in DMSO) were mixed with 27 μL of Assay Buffer, then 5 μL of this mixture was added to Reaction plate with 25 μL of PTPN2 Mix. Plates were centrifuged for 1 min at 100 g and incubated for another 10 min at rt. Finally, 20 μL of 2.5× Substrate (DiFUMP, Invitrogen™ Cat #D6567) mix was added into appropriate wells of Reaction plate to the final concentration of 2 μM, plate was centrifuged at 100 g for 1 min followed by incubation at rt for 60 min, and the Fluorescence Intensity was measured using a Microplate Reader (ClarioStar Plus, excitation 360 nm, emission 450 nm). The % inhibition was then used to calculate the Ki values. The Ki values are shown in Table A, wherein “A” corresponds to Ki<1.0 nm, “B” corresponds to 1.0 nm≤Ki<5.0 nm, “C” corresponds to 5.0 nm≤Ki<10.0 nm, “D” corresponds to 10.0 nm≤Ki<50.0 nm, and “E” corresponds to 50.0 nm≤Ki<100.0 nm, and “F” corresponds to 100.0 nm≤Ki.

[2] = Pharmacokinetic (PK) study in mice, oral bioavailability; assay type: in vivo, Male CD-1 mice; details: 10 mg/kg PO vs 2 mg/kg IV, 10% Ethanol, 30% PEG-400, 60% Phosal-50PG
Experimental: Pharmacokinetic (PK) study in mice: Male CD-1 mice obtained from Charles River GmbH (Sulzfeld, Germany) with body weight ranging between 30 g to 40 g were used in the PK studies. Group of 12 mice were given a 2 mg/kg intravenous bolus (IV) dose of test article as a solution in 20% HP-beta-CD, and another group of 9 mice were given a 10 mg/kg oral (PO) dose of test article as a solution or suspension in [10% ethanol, 30% PEG-400 and 60% Phosal-50PG]. Blood samples (˜200 μL per time point) were collected twice from each animal—from orbital sinus and by cardiopuncture at 0.083, 0.25, 0.5, 1, 2, 4, 8 and 24 hours after IV administration, and at 0.5, 1, 2, 4, 8 and 24 hours after PO administration, 3 mice/time point. Blood samples were collected in tubes with Na-EDTA 0.5 M solution (1:10) and centrifuged for 10 min at 10,000 rpm at 2 to 8° C. to harvest plasma. Plasma samples were stored at −80° C. until LC/MS/MS analysis. Concentration in each plasma sample was determined by a non-validated LC/MS/MS. Data is acquired using multiple reaction monitoring (MRM) with specific transitions monitored for each compound. Pharmacokinetic Analysis: PK parameters were calculated by non-compartmental methods as described in Gibaldi and Perrier (Gibaldi and Perrier, 1982) using Phoenix® WinNonlin® version 6.3 (Certara L.P.). Following PO administration, percent bioavailability (Fabs) was determined by dividing the dose normalized mean area under the plasma concentration-time curve, extrapolated to the last time point (AUClast) obtained following PO dose by the mean dose normalized AUC of the animals dosed by IV injection. All PK parameters are presented as mean±standard deviation (SD). PK studies were conducted in mice for exemplary compounds of Formula (I). The percent bioavailability (Fabs) values determined are listed in Table C for certain compounds, together with the dosage, vehicle and form used in the studies.

[3] = B16F10, no IFNγ, 3 days of incubation, read-out: IC50 no IFNγ
[4] = B16F10, with IFNγ, 3 days of incubation, read-out: IC50 + IFNγ
[5] = B16-F10, B16F10, 100 μM compound, no IFNγ, read-out: % Growth Inhibition at 100 μM no IFNγ
[6] = B16-F10, B16F10, 100 μM compound, with IFNγ, read-out: % Growth Inhibition at 100 μM + IFNγ

Chain of GST-tagged PTPN2 protein (P17706 whole entry): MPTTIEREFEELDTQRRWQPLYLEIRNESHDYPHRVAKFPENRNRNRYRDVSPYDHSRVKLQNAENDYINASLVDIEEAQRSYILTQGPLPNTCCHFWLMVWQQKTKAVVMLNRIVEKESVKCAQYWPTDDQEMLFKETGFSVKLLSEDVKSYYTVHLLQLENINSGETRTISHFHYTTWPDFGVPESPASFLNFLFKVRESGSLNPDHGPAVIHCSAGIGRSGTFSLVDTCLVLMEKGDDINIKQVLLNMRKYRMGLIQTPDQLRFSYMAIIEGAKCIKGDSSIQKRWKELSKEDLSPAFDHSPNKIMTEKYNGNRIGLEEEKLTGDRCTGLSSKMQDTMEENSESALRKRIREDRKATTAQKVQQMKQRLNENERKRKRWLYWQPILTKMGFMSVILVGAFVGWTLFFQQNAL

Structure (SMILES)	IC50 [1, 3] [µM]	IC50 [1, 4] [µM]	Ki (GST-tagged PTPN2 protein) [µM]	Fabs, % ([2]; form Solution) [%]	Fabs, % ([2]; form Suspension) [%]	inhibition at 100 µM [1, 5] [%]	inhibition at 100 µM [1, 6] [%]	IC50 ([1]; read-out: IC50 + IFNγ (μM)) [µM]	IC50 ([1]; read-out: IC50 no IFNγ (μM)) [µM]	inhibition at 100 µM ([1]; B16-F10, read-out: % Growth Inhibition at 100 μM + IFNγ) [%]	inhibition at 100 µM ([1]; B16-F10, read-out: % Growth Inhibition at 100 μM no IFNγ) [%]
Cc1ccnc(Nc2cc(O)c(N3CC(=O)NS3(=O)=O)c(F)c2)n1 [Compound 4, 5-[2-fluoro-6-hydroxy-4-[(4-methylpyrimidin-2-yl)amino]phenyl]-1,1-dioxo-1,2,5-thiadiazolidin-3-one]			≥ 0.1					> 100	> 100	10 to 50	10 to 50
COc1cc(O)nc(Nc2cc(O)c(N3CC(=O)NS3(=O)=O)c(F)c2)n1 [Compound 9, 5-[2-fluoro-6-hydroxy-4-[(4-hydroxy-6-methoxy-pyrimidin-2-yl)amino]phenyl]-1,1-dioxo-1,2,5-thiadiazolidin-3-one]	> 100	5 to 10	< 0.001	10.4		10 to 50	75 to 100				
CC(C)Cc1cnc(Nc2cc(O)c(N3CC(=O)NS3(=O)=O)c(F)c2)nc1O [Compound 12, 5-[2-fluoro-6-hydroxy-4-[(4-hydroxy-5-isobutyl-pyrimidin-2-yl)amino]phenyl]-1,1-dioxo-1,2,5-thiadiazolidin-3-one]	> 100	10 to 50	< 0.001			10 to 50	50 to 75				
CC(C)Cc1c(O)nc(Nc2cc(O)c(N3CC(=O)NS3(=O)=O)c(F)c2)nc1O [Compound 13, 5-[4-[(4,6-dihydroxy-5-isobutyl-pyrimidin-2-yl)amino]-2-fluoro-6-hydroxy-phenyl]-1,1-dioxo-1,2,5-thiadiazolidin-3-one]	> 100	10 to 50	0.001 to 0.005			10 to 50	50 to 75				
CCCc1c(C)nc(Nc2cc(O)c(N3CC(=O)NS3(=O)=O)c(F)c2)nc1O [Compound 21, 5-[2-fluoro-6-hydroxy-4-[(4-hydroxy-6-methyl-5-propyl-pyrimidin-2-yl)amino]phenyl]-1,1-dioxo-1,2,5-thiadiazolidin-3-one]	> 100	10 to 50	0.001 to 0.005			10 to 50	50 to 75				
O=C1CN(c2c(O)cc(Nc3nc(O)c4c(n3)CCCC4)cc2F)S(=O)(=O)N1 [Compound 39, 5-[2-fluoro-6-hydroxy-4-[(4-hydroxy-5,6,7,8-tetrahydroquinazolin-2-yl)amino]phenyl]-1,1-dioxo-1,2,5-thiadiazolidin-3-one]	> 100	10 to 50	< 0.001			10 to 50	50 to 75				
CC(C)Cc1c(O)nc(Nc2cc(O)c(N3CC(=O)NS3(=O)=O)c(F)c2)nc1Cl [Compound 42, 5-[4-[(4-chloro-6-hydroxy-5-isobutyl-pyrimidin-2-yl)amino]-2-fluoro-6-hydroxy-phenyl]-1,1-dioxo-1,2,5-thiadiazolidin-3-one]	> 100	10 to 50	< 0.001			10 to 50	75 to 100				

More lines, main results first:

IC50 [1, 3] [µM]	IC50 [1, 4] [µM]	Ki (GST-tagged PTPN2 protein) [µM]	Fabs, % ([2]; form Solution) [%]	Fabs, % ([2]; form Suspension) [%]	Structure (SMILES)	inhibition at 100 µM [1, 5] [%]	inhibition at 100 µM [1, 6] [%]	IC50 ([1]; read-out: IC50 + IFNγ (μM)) [µM]	IC50 ([1]; read-out: IC50 no IFNγ (μM)) [µM]	inhibition at 100 µM ([1]; B16-F10, read-out: % Growth Inhibition at 100 μM + IFNγ) [%]	inhibition at 100 µM ([1]; B16-F10, read-out: % Growth Inhibition at 100 μM no IFNγ) [%]
> 100	< 5	0.005 to 0.01			O=C1CN(c2c(O)cc(NC3=NCCCN3)cc2F)S(=O)(=O)N1 [Compound 2, 5-[2-fluoro-6-hydroxy-4-(1,4,5,6-tetrahydropyrimidin-2-ylamino)phenyl]-1,1-dioxo-1,2,5-thiadiazolidin-3-one]	10 to 50	75 to 100				
10 to 50	5 to 10	0.01 to 0.05	12.5		CC1CCN=C(Nc2cc(O)c(N3CC(=O)NS3(=O)=O)c(F)c2)N1 (centres unmarked) [Compound 3, 5-[2-fluoro-6-hydroxy-4-[(6-methyl-1,4,5,6-tetrahydropyrimidin-2-yl)amino]phenyl]-1,1-dioxo-1,2,5-thiadiazolidin-3-one]	10 to 50	50 to 75				
> 100	> 100	0.05 to 0.1			O=C1CN(c2c(O)cc(Nc3ncc(Cl)cn3)cc2F)S(=O)(=O)N1 [Compound 5, 5-[4-[(5-chloropyrimidin-2-yl)amino]-2-fluoro-6-hydroxy-phenyl]-1,1-dioxo-1,2,5-thiadiazolidin-3-one]	10 to 50	10 to 50				
> 100	50 to 100	< 0.001			Cc1cnc(Nc2cc(O)c(N3CC(=O)NS3(=O)=O)c(F)c2)nc1O [Compound 6, 5-[2-fluoro-6-hydroxy-4-[(4-hydroxy-5-methyl-pyrimidin-2-yl)amino]phenyl]-1,1-dioxo-1,2,5-thiadiazolidin-3-one]	< 10	50 to 75				
> 100	5 to 10	0.001 to 0.005		6.1	O=C1CN(c2c(O)cc(Nc3nccc(O)n3)cc2F)S(=O)(=O)N1 [Compound 7, 5-[2-fluoro-6-hydroxy-4-[(4-hydroxypyrimidin-2-yl)amino]phenyl]-1,1-dioxo-1,2,5-thiadiazolidin-3-one]	10 to 50	75 to 100				
> 100	10 to 50	< 0.001			O=C1CN(c2c(O)cc(Nc3nc(O)c4ccccc4n3)cc2F)S(=O)(=O)N1 [Compound 8, 5-[2-fluoro-6-hydroxy-4-[(4-hydroxyquinazolin-2-yl)amino]phenyl]-1,1-dioxo-1,2,5-thiadiazolidin-3-one]	10 to 50	50 to 75				
